According to PMC6272846, “Synthesis and p38 Inhibitory Activity of Some Novel Substituted N,N′-Diarylurea Derivatives” (Molecules, 2016):

How the values were obtained:
MAPKAPK2 = assay: Inhibition of MAPKAPK2 in GFP-MAPKAPk2_BHK cell model (nuclear translocation); assay type: cell-based; conditions: GFP-MAPKAPk2_BHK cells
Description: In order to study p38α inhibition in a cell system, we investigated the ability of all compounds to inhibit the phosphorylation of mitogen-activated protein-kinase-activated protein kinase 2 (MAPKAPK2). Each compound was prepared at […] concentrations (1, 3, 10 and 30 nM, 0.1 and 0.3 μM), and the percentages of inhibition were calculated from the numbers of cells after treatment with the different compounds.
GFP-MAPKAPk2_BHK cells were cultured in 96-well plates (2.0 × 10^4/100 μL/well) containing 10% heat-inactivated foetal bovine serum (FBS) and 1 mg/mL G418 at 37 °C in humidified air containing 5% CO2 for 18–24 h. The cells were washed with nutrient solution (100 μL/well) and changed to the compound liquid (100 μL/well). Experiments were set up with the control, and the compound was repeated at each concentration in three wells. The cells were cultured in 96-well plates at 37 °C in humidified air containing 5% CO2 for 90 min. The cells were washed with the dye solution (20 μL/well), and the dyed cells were held for 1 hour at room temperature in the dye liquid. Analysis of nuclear translocation and calculation of the ability of the compounds to inhibit nuclear translocation was performed using the IN Cell Analyzer 1000 Nuclear Trafficking Analysis Module System (GE, Madison, WI, USA). The cultured cells were treated with the obtained compounds in […] concentration grads (1, 3, 10 and 30 nM, 0.1 and 0.3 μM). The inhibitory percentage can be calculated using the amounts of cells after the disposition of the different compounds.

[1] = test system: TNF-α release from THP-1 cells; assay: Inhibition of TNF-α release from THP-1 cells after LPS stimulation; assay type: cell-based; conditions: Homo sapiens; LPS-stimulated THP-1 cells
Description: LPS stock was prepared at 1 mg/mL by adding 1 mL sterile endotoxin-free water to 1 mg LPS powder. The LPS stock was aliquoted and stored at −20 °C. […] An amount of 100 K THP-1 cells were seeded into a 96-well cell culture plate in 100 μL of test medium. […] A total of 10 μL compound was added to the plate with cells, and the cells were incubated for 1 hour at 37 °C. An amount of 10 μL/well LPS was added to stimulate the cells. The final LPS concentration was 300 ng/mL, and the DMSO concentration was 0.3%. […]. The plate was incubated for 5 hours at 37 °C. […] Three replicates were used for each dose. At the 5th hour, the TNF-α in the supernatants and standard curve samples was determined using the HTRF kit. […] Amounts of 5 μL Anti-TNF-α-Cryptate (Invitrogen, Carlsbad, CA, USA) and 5 μL Anti-TNFα-XL665 (Invitrogen) were added, and the plate was incubated at RT for 15 h. The plate was read on an Envision instrument (PerkinElmer) and the IC50 was calculated.

MAPK14/p38α = MAPK14/p38α (Homo sapiens, UniProt Q16539); assay: p38α MAP kinase activity, phosphorylation of ATF-2 (TR-FRET); assay type: biochemical; conditions: enzyme
Sequence of MAPK14/p38α (Q16539 whole entry): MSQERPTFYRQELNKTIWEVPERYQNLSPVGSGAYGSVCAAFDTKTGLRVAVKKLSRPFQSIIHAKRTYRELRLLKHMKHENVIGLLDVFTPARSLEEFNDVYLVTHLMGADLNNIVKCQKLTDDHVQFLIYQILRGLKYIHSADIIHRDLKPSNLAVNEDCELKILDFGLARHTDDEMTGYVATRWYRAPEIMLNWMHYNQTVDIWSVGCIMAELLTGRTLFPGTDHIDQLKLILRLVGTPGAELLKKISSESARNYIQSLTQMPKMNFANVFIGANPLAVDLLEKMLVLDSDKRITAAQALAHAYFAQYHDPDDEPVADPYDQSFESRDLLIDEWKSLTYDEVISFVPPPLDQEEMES
Description: Kinase reaction buffer was composed of 50 mM HEPES (pH 7.5), 0.01% BRIJ-35, 10 mM MgCl2 and 1 mM EGTA. Prepared MAPK14/p38α in 1× kinase buffer with concentration at 500 ng/mL. A 2-fold serial dilution was performed using 1× kinase buffer from 500 ng/mL using 16 dose points. […] The reaction was started by adding 5 μL of the GFP-ATF2(19–96) substrate and ATP solution into each well of the assay plate. The final starting concentration of MAPK14/p38α was 250ng/ml, and the final GFP-ATF2 and ATP concentrations were 0.4 μM and 90 μM, respectively. The assay plate was sealed and incubated for 1 hour at room temperature (RT). Antibody solution (1 mL) was prepared from 20 mM EDTA and 4 nM Tb-antipATF2 (pThr71) antibody in TR-FRET dilution buffer. Antibody solution (10 μL) was added into each well of the assay plate and mixed gently. The final EDTA concentration was 10 mM, and the final Tb-antipATF2 (pThr71) concentration was 2 nM. The assay plate was sealed and incubated for 30 minutes at RT.
Inhibitor in 0.5% DMSO (2 μL/well) at 5-fold the final assay concentration was added into a 384-well assay plate. […] MAPK14/p38α (4 μL/well) was added to each well of the 384-well assay plate and incubated for 15 min at RT. To start the reaction, substrate GFP-ATF2 (19–96) and ATP (4 μL/well) were added into kinase reaction buffer. […] The resulting TR-FRET emission ratio was plotted against the concentration of inhibitor, and the data fitted to a sigmoidal dose-response curve with a variable slope. The IC50 concentration was calculated from the curve.

[2] = molecular target: p38α mitogen-activated protein kinase (Homo sapiens, UniProt Q16539); assay: Surface plasmon resonance (Biacore) binding to p38α; conditions: SPR, 25 °C
Sequence of p38α mitogen-activated protein kinase (Q16539 whole entry): as above
Description: To assess the binding ability between the compounds and p38α protein, we used SPR for kinase inhibitor interaction studies.
The Biacore instrument uses a technique based on surface plasmon resonance to follow the real-time binding of compounds to immobilized proteins on a carboxymethyl dextran surface in a liquid milieu. Compounds were stored as 10 mM stock solutions in 100% dimethyl sulfoxide (DMSO). All light-sensitive compounds were handled under yellow protective light. […] ATP was dissolved directly in running buffer to make a 10 mM solution. The run was started with five start-up cycles in which running buffer was injected (instead of a sample) followed by sample injection cycles. Zero concentration samples were used as blanks. A typical analysis cycle consisted of a 60 s sample injection (30 μL/min), 120–200 s of buffer flow (dissociation phase), followed by a needle and tubing wash with 50% DMSO and buffer, and finally, a 30 s buffer injection to check for sample carry over. The flow cell temperature was 25 °C. Between sample series, a solvent correction cycle was run according to the instrument manual to adjust for referencing errors due to refractive index mismatches between running buffer and samples [35].

TNF-α production = test system: TNF-α production; design: method as in PMID 11896401; conditions: 30 mg/kg p.o.; cited from earlier work
[3] = test system: TNF-α production, human whole blood; design: method as in PMID 11896401; conditions: read-out: IC50, inhibition of LPS-induced TNF-α production; cited from earlier work

SMILES	IC50 (MAPKAPK2) [µM]	IC50 [1] [nM]	IC50 (MAPK14/p38α; GFP-ATF2 substrate, 90 μM ATP) [µM]	Kd [2] [nM]	inhibition of LPS-induced TNF-α production in mice in vivo (TNF-α production) [%]	IC50 [3] [nM]	IC50 (MAPKAPK2; bound given in µM) [µM]	IC50 (MAPK14/p38α; bound given in µM) [µM]
CC(C)(C)c1cc(NC(=O)NCc2ccccc2Oc2ccc3[nH]ncc3c2)n(-c2ccc(F)cc2)n1 [25g, 1-(2-((1H-Indazol-5-yl)oxy)benzyl)-3-(3-(tert-butyl)-1-(4-fluorophenyl)-1H-pyrazol-5-yl)urea]	0.00316 ± 0.00131	2 ± 0.01	0.00066 ± 9e-05	–	–	–	–	–
CC(C)(C)c1cc(NC(=O)NCc2ccccc2Oc2ccc3[nH]ncc3c2)n(-c2ccc(Cl)cc2)n1 [25e, 1-(2-((1H-Indazol-5-yl)oxy)benzyl)-3-(3-(tert-butyl)-1-(4-chlorophenyl)-1H-pyrazol-5-yl)urea]	0.00992 ± 0.00065	3.48 ± 0.46	–	–	–	–	–	–
CC(C)(C)c1cc(NC(=O)NCc2ccccc2Oc2ccc3[nH]ncc3c2)n(-c2ccc(Br)cc2)n1 [25f, 1-(2-((1H-Indazol-5-yl)oxy)benzyl)-3-(1-(4-bromophenyl)-3-(tert-butyl)-1H-pyrazol-5-yl)urea]	0.0074 ± 0.00087	1.82 ± 0.15	0.00073 ± 1e-05	–	–	–	–	–
CC(C)(C)c1cc(NC(=O)NCc2ccccc2Oc2ccc3[nH]ncc3c2)n(-c2ccc([N+](=O)[O-])cc2)n1 [25h, 1-(2-((1H-Indazol-5-yl)oxy)benzyl)-3-(3-(tert-butyl)-1-(4-nitrophenyl)-1H-pyrazol-5-yl)urea]	0.00264 ± 0.00056	1.79 ± 0.48	0.00082 ± 1e-05	221	–	–	–	–
Cc1ccc(-n2nc(C(C)(C)C)cc2NC(=O)NCc2ccccc2Oc2ccc3c(c2)CCCC3O)cc1 (stereo not drawn) [27a, 1-(3-(tert-Butyl)-1-(p-tolyl)-1H-pyrazol-5-yl)-3-(2-((5-hydroxy-5,6,7,8-tetrahydronaphthalen-2-yl)oxy)-benzyl)urea]	0.13341 ± 7e-05	15.3 ± 2.56	0.00359 ± 0.00021	–	–	–	–	–
CC(C)(C)c1cc(NC(=O)NCc2ccccc2Oc2ccc3[nH]ncc3c2)n(-c2ccccc2)n1 [25b, 1-(2-((1H-Indazol-5-yl)oxy)benzyl)-3-(3-(tert-butyl)-1-phenyl-1H-pyrazol-5-yl)urea]	0.00245 ± 0.00059	1 ± 0.09	0.0008 ± 3e-05	382	–	–	–	–
CC(C)(C)c1cc(NC(=O)NCc2cc(F)ccc2Oc2ccc3c(c2)CCCC3O)n(-c2ccc([N+](=O)[O-])cc2)n1 (stereo not drawn) [27d, 1-(3-(tert-Butyl)-1-(4-nitrophenyl)-1H-pyrazol-5-yl)-3-(5-fluoro-2-((5-hydroxy-5,6,7,8-tetrahydro-naphthalen-2-yl)oxy)benzyl)urea]	–	130 ± 3.33	0.00576 ± 0.00024	–	–	–	–	–
Cc1ccc(-n2nc(C(C)(C)C)cc2NC(=O)NCc2ccccc2Oc2ccc3[nH]ncc3c2)cc1 [25a, 1-(2-((1H-Indazol-5-yl)oxy)benzyl)-3-(3-(tert-butyl)-1-(p-tolyl)-1H-pyrazol-5-yl)urea]	0.00136 ± 0.00031	0.73 ± 0.13	0.00047 ± 2e-05	15.4	–	–	–	–
Cc1cccc(-n2nc(C(C)(C)C)cc2NC(=O)NCc2ccccc2Oc2ccc3[nH]ncc3c2)c1 [25c, 1-(2-((1H-Indazol-5-yl)oxy)benzyl)-3-(3-(tert-butyl)-1-(m-tolyl)-1H-pyrazol-5-yl)urea]	0.0066 ± 0.00066	1.06 ± 0.05	0.00077 ± 8e-05	421	–	–	–	–
CC(C)(C)c1cc(NC(=O)NCc2ccccc2Oc2ccc3c(c2)CCCC3O)n(-c2ccccc2)n1 (stereo not drawn) [27c, 1-(3-(tert-Butyl)-1-phenyl-1H-pyrazol-5-yl)-3-(2-((5-hydroxy-5,6,7,8-tetrahydronaphthalen-2-yl)oxy)-benzyl)urea]	0.124 ± 0.00664	18.4 ± 4.35	0.00373 ± 0.00032	–	–	–	–	–
Cc1ccc(-n2nc(C(C)(C)C)cc2NC(=O)Nc2ccc(OCCN3CCOCC3)c3ccccc23)cc1 [BIRB-796, 1-(5-tert-butyl-2-p-tolyl-2h-pyrazol-3-yl)-3-[4-(2-morpholin-4-yl-ethoxy)naph-thalen-1-yl]urea]	–	–	–	–	84	780	–	–
CC(C)(C)c1cc(NC(=O)Nc2ccc(Oc3ccc4[nH]ncc4c3)c3c2OCC=C3)n(-c2ccccc2)n1 [26b, 1-(5-((1H-Indazol-5-yl)oxy)-2H-chromen-8-yl)-3-(3-(tert-butyl)-1-phenyl-1H-pyrazol-5-yl)urea]	0.0223 ± 0.00188	–	0.00514 ± 0.00033	–	–	–	–	–
CC(C)(C)c1cc(NC(=O)NCc2ccccc2Oc2ccc3c(c2)CCCC3O)n(-c2ccc([N+](=O)[O-])cc2)n1 (stereo not drawn) [27b, 1-(3-(tert-Butyl)-1-(4-nitrophenyl)-1H-pyrazol-5-yl)-3-(2-((5-hydroxy-5,6,7,8-tetrahydronaphthalen-2-yl)-oxy)benzyl)urea]	0.0985 ± 0.00589	27.5 ± 1.21	0.00387 ± 0.00043	–	–	–	–	–
COc1ccc(-n2nc(C(C)(C)C)cc2NC(=O)NCc2ccccc2Oc2ccc3[nH]ncc3c2)cc1 [25d, 1-(2-((1H-Indazol-5-yl)oxy)benzyl)-3-(3-(tert-butyl)-1-(4-methoxyphenyl)-1H-pyrazol-5-yl)urea]	0.00545 ± 0.00043	1.43 ± 0.07	0.00122 ± 0.00032	–	–	–	–	–
CC(C)(C)c1cc(NC(=O)Nc2ccccc2Oc2ccc3[nH]ncc3c2)n(-c2ccccc2)n1 [29b, 1-(2-((1H-Indazol-5-yl)oxy)phenyl)-3-(3-(tert-butyl)-1-phenyl-1H-pyrazol-5-yl)urea]	–	–	–	–	–	–	> 10	> 10
Cc1ccc(-n2nc(C(C)(C)C)cc2NC(=O)NCc2cc(F)ccc2Oc2ccc3c(c2)CCCC3O)cc1 (stereo not drawn) [27e, 1-(3-(tert-Butyl)-1-(p-tolyl)-1H-pyrazol-5-yl)-3-(5-fluoro-2-((5-hydroxy-5,6,7,8-tetrahydronaphthalen-2-yl)-oxy)benzyl)urea]	–	182 ± 4.35	0.005 ± 0.00053	–	–	–	–	–
CC(C)(C)c1cc(NC(=O)NCc2ccccc2Oc2ccc3[nH]ncc3c2)n(-c2ccc(S(N)(=O)=O)cc2)n1 [25k, 4-(5-(3-(2-((1H-Indazol-5-yl)oxy)benzyl)ureido)-3-(tert-butyl)-1H-pyrazol-1-yl)benzenesulfonamide]	0.039 ± 0.00576	8.69 ± 0.01	–	–	–	–	–	–
